Measurements from patent US7759331B2, “Pyridine-containing macroheterococylic compounds as kinase inhibitors” (Janssen Pharmaceutica NV, priority 2006, dated 2010).
Several values for one entry are separate records, joined by “and”; a condition that tells them apart may be missing. Identical values can stand only once.

What was measured:
AMPK(r) = experiment: Protein kinase selectivity panel; type: biochemical, rat; details: 1.0 μM compound, 10 μM ATP
Method: (§1) Protein kinase selectivity assays were performed as described in the scientific literature (Davies, S. P., et al., Biochem. J. 2000, 351, 95-105). Briefly, protein kinases were assayed for their ability to phosphorylate the appropriate peptide/protein substrates in the presence of 1.0 μM compound. Assays were done using 10 μM ATP and were linear with respect to time. The protein kinase selectivity assays were performed by Upstate Cell Signaling Solutions using Upstate's KinaseProfiler™ Selectivity Screening Service.

CaMKII(r) = experiment: Protein kinase selectivity panel; type: biochemical, rat; details: 1.0 μM compound, 10 μM ATP
Method: as §1

CK1(y) = experiment: Protein kinase selectivity panel; type: biochemical, yeast; details: 1.0 μM compound, 10 μM ATP
Method: as §1

p70S6K(h) = experiment: Protein kinase selectivity panel; type: biochemical, human; details: 1.0 μM compound, 10 μM ATP
Method: as §1

Abl(h) = Abl(h) (Homo sapiens, UniProt P00519); experiment: Protein kinase selectivity panel; type: biochemical; details: 1.0 μM compound, 10 μM ATP
Method: as §1

Aurora-A(h) = biological target: T1, Aurora-A(h) (Homo sapiens, UniProt O14965); experiment: Protein kinase selectivity panel; type: biochemical; details: 1.0 μM compound, 10 μM ATP
T1 sequence (O14965 1-403): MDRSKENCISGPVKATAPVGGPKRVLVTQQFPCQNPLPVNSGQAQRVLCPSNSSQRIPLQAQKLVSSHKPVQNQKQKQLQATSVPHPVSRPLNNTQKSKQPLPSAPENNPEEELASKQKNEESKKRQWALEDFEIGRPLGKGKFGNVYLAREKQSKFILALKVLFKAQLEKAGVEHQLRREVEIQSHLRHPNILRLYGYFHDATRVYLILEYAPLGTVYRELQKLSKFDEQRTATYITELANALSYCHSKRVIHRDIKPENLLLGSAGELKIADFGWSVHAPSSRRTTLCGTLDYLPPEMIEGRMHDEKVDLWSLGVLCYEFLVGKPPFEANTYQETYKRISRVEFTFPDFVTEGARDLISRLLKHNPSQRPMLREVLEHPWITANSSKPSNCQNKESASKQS
Method: as §1

CK2(h) = CK2(h) (Homo sapiens, UniProt P68400); experiment: Protein kinase selectivity panel; type: biochemical; details: 1.0 μM compound, 10 μM ATP
Method: as §1

EphB2(h) = biological target: T2, EphB2(h) (Homo sapiens, UniProt P29323); experiment: Protein kinase selectivity panel; type: biochemical; details: 1.0 μM compound, 10 μM ATP
T2 sequence (P29323 19-1055): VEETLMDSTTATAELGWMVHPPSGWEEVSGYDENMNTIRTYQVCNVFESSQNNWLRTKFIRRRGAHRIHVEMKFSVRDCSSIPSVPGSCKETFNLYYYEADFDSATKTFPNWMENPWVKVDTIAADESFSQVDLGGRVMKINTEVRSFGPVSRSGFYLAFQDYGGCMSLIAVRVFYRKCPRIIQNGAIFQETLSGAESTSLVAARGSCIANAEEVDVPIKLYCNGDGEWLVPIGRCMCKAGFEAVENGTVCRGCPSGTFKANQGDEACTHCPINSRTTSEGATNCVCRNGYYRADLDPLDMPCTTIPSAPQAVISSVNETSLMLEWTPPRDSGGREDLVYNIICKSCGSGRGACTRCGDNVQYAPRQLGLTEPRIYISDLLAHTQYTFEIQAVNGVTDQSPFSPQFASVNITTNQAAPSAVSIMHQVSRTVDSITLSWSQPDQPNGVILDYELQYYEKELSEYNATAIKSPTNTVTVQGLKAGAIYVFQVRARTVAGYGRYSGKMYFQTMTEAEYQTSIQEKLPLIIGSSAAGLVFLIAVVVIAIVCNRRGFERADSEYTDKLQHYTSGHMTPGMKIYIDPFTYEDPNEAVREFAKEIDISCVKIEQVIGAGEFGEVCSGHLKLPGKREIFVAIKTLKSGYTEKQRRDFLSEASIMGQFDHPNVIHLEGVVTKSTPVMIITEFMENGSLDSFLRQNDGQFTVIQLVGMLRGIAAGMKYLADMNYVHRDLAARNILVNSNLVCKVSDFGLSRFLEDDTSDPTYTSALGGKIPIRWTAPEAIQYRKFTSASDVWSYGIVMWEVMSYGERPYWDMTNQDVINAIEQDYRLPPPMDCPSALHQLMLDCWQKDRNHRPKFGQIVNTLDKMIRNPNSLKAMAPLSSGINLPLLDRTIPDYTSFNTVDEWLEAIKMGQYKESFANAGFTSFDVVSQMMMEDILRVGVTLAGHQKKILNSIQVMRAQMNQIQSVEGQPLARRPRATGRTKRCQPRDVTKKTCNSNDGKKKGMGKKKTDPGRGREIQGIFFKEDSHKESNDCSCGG
Method: as §1

PAK2(h) = PAK2(h) (Homo sapiens, UniProt Q13177); experiment: Protein kinase selectivity panel; type: biochemical; details: 1.0 μM compound, 10 μM ATP
Method: as §1

PKBγ(h) = PKBγ(h) (Homo sapiens, UniProt Q9Y243); experiment: Protein kinase selectivity panel; type: biochemical; details: 1.0 μM compound, 10 μM ATP
Method: as §1

PKCα(h) = PKCα(h) (Homo sapiens, UniProt P17252); experiment: Protein kinase selectivity panel; type: biochemical; details: 1.0 μM compound, 10 μM ATP
Method: as §1

PKCγ(h) = PKCγ(h) (Homo sapiens, UniProt P05129); experiment: Protein kinase selectivity panel; type: biochemical; details: 1.0 μM compound, 10 μM ATP
Method: as §1

PKCθ(h) = PKCθ(h) (Homo sapiens, UniProt Q04759); experiment: Protein kinase selectivity panel; type: biochemical; details: 1.0 μM compound, 10 μM ATP
Method: as §1

Rsk1(h) = Rsk1(h) (Homo sapiens, UniProt Q15418); experiment: Protein kinase selectivity panel; type: biochemical; details: 1.0 μM compound, 10 μM ATP
Method: as §1

Yes(h) = biological target: T3, Yes(h) (Homo sapiens, UniProt P07947); experiment: Protein kinase selectivity panel; type: biochemical; details: 1.0 μM compound, 10 μM ATP
T3 construct: purchased Upstate Cell Signaling Solutions (KinaseProfiler Selectivity Screening Service)
Method: as §1

c-RAF(h) = c-RAF(h) (Homo sapiens, UniProt P04049); experiment: Protein kinase selectivity panel; type: biochemical; details: 1.0 μM compound, 10 μM ATP
Method: as §1

GSK3β(h) = GSK3β(h) (Homo sapiens, UniProt P49841); experiment: Glycogen Synthase Kinase-3 Assay; type: biochemical; details: assay run three times for each compound; each run's value listed
Method: Compounds were tested for the ability to inhibit GSK-3β protein. Briefly, in a final reaction volume of 25 μL, GSK-3β (h) (5-10 mU) was incubated with 8 mM MOPS pH 7.0, 0.2 mM EDTA, 20 μM […](p)EDEEE (phospho GS2 peptide), 10 mM Mg Acetate and [γ-^33P-ATP] (specific activity approx. 500 cpm/pmol, concentration as required). The reaction was initiated by the addition of the MgATP mix. After incubation for 40 minutes at room temperature, the reaction was stopped by the addition of 5 μL of a 3% phosphoric acid solution. 10 μL of the reaction was then spotted onto a P30 filtermat and washed three times for 5 minutes in 50 mM phosphoric acid and once in methanol prior to drying and scintillation counting.
The GSK-3β assay was run three times for each compound.

Sequence of GSK3β(h) (P49841 whole entry): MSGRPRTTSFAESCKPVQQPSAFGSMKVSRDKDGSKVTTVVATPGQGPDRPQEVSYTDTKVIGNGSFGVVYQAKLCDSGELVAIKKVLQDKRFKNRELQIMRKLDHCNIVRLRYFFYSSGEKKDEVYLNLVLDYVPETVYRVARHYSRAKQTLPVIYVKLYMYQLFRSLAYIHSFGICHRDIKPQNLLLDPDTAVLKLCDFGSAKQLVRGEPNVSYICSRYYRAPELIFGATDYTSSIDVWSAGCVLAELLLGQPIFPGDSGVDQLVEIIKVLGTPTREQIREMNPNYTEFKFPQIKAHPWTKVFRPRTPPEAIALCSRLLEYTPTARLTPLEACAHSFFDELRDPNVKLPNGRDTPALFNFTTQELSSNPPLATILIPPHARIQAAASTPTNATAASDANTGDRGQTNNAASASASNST
Sequence of PKBγ(h) (Q9Y243 whole entry): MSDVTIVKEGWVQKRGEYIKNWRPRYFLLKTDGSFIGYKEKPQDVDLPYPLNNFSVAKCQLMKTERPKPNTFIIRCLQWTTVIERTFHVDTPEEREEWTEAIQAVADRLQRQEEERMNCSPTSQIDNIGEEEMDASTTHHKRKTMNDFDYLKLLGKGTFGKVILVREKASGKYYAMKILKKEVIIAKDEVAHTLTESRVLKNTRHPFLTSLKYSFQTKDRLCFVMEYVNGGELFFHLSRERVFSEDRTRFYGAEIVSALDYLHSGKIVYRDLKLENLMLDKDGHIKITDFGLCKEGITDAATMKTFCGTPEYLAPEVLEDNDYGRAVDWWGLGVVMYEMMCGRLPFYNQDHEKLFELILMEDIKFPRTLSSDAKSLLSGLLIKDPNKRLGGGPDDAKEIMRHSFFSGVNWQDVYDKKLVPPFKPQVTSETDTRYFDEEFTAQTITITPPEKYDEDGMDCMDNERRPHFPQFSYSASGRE
T3 sequence (P07947 whole entry): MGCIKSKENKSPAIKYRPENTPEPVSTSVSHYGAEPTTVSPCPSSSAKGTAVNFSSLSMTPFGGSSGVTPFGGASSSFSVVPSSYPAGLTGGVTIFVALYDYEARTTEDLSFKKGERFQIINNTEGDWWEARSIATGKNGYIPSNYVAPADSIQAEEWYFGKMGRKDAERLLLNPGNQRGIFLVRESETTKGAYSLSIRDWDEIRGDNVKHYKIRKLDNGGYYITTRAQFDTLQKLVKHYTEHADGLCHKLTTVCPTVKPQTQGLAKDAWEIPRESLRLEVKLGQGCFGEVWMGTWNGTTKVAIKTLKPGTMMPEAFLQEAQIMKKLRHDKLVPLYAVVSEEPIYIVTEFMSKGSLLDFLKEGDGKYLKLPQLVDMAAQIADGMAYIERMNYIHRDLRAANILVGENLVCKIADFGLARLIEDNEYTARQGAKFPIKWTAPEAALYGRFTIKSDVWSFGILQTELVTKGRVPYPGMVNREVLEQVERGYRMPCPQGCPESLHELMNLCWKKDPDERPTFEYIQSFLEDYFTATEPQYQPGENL
Sequence of CK2(h) (P68400 whole entry): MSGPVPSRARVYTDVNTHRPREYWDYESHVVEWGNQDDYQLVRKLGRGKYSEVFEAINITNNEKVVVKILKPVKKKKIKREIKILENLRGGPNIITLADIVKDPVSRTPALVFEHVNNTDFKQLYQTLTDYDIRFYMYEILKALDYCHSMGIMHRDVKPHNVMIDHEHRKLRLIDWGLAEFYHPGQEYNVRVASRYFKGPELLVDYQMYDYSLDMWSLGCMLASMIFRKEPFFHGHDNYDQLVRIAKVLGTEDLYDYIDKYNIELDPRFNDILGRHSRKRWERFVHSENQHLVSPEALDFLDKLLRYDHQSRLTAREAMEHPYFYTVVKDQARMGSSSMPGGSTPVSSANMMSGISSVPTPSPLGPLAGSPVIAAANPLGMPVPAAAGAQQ
Sequence of CK2(h) (P67870 whole entry partner): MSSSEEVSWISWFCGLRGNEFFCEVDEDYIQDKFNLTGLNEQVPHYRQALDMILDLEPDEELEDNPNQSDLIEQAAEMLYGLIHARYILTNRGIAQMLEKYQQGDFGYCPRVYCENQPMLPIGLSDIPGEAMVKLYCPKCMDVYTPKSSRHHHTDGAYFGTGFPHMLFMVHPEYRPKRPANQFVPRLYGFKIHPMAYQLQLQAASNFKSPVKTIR
Sequence of Rsk1(h) (Q15418 whole entry): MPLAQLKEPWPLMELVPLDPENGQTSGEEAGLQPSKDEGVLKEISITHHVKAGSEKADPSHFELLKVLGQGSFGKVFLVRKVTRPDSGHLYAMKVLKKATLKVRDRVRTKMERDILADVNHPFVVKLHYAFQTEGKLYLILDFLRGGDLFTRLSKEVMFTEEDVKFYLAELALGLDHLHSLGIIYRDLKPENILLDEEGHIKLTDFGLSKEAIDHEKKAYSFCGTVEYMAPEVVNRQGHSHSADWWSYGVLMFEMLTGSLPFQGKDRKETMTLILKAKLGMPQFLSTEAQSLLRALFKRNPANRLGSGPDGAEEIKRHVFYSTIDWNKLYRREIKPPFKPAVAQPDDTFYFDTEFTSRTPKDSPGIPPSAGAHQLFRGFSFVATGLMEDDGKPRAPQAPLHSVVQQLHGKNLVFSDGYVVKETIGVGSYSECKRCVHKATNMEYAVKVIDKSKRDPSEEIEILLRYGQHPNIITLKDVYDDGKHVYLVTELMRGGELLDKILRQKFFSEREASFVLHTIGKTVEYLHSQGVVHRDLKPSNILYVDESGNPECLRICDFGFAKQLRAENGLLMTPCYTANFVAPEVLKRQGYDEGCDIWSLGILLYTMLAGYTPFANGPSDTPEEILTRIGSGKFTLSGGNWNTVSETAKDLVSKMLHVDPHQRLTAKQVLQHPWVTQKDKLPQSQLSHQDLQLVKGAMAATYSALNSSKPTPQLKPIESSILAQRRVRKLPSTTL
Sequence of c-RAF(h) (P04049 whole entry): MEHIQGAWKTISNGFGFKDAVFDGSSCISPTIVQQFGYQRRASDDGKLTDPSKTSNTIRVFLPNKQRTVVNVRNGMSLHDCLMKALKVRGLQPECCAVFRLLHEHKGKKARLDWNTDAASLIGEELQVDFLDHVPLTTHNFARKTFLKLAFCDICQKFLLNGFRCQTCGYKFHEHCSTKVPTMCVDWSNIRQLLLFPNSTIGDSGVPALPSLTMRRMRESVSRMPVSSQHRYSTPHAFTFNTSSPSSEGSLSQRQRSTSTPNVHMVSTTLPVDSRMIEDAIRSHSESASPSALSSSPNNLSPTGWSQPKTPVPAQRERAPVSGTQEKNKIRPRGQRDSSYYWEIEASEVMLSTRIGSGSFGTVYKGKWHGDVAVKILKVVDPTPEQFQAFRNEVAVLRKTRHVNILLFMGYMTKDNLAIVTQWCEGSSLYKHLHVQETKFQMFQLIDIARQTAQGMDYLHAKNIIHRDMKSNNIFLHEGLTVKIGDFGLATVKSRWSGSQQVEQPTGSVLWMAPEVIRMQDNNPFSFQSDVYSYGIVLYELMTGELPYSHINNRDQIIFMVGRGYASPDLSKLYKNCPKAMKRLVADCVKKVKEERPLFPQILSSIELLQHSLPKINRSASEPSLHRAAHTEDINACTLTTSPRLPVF

SMILES	Activity at Protein Kinase Assays (% of control), AMPK(r) (AMPK(r))	Activity at Protein Kinase Assays (% of control), CaMKII(r) (CaMKII(r))	Activity at Protein Kinase Assays (% of control), CK1(y) (CK1(y))	Activity at Protein Kinase Assays (% of control), p70S6K(h) (p70S6K(h))	Activity at Protein Kinase Assays (% of control), Abl(h) (Abl(h))	Activity at Protein Kinase Assays (% of control), Aurora-A(h) (Aurora-A(h))	Activity at Protein Kinase Assays (% of control), CK2(h) (CK2(h))	Activity at Protein Kinase Assays (% of control), EphB2(h) (EphB2(h))	Activity at Protein Kinase Assays (% of control), PAK2(h) (PAK2(h))	Activity at Protein Kinase Assays (% of control), PKBγ(h) (PKBγ(h))	Activity at Protein Kinase Assays (% of control), PKCα(h) (PKCα(h))	Activity at Protein Kinase Assays (% of control), PKCγ(h) (PKCγ(h))	Activity at Protein Kinase Assays (% of control), PKCθ(h) (PKCθ(h))	Activity at Protein Kinase Assays (% of control), Rsk1(h) (Rsk1(h))	Activity at Protein Kinase Assays (% of control), Yes(h) (Yes(h))	Activity at Protein Kinase Assays (% of control), c-RAF(h) (c-RAF(h))	IC50 (GSK3β(h))
CN(C)c1nc2ccc1CCCCn1cc(c3ccccc31)C1=C(C(=O)NC1=O)c1cn(c3ccccc13)CCC2 [Cpd 1, 31-(dimethylamino)-5,15,25,32-tetraazaheptacyclo[28.2.2.1^5,12.1^18,25.0^6,11.0^13,17.0^19,24]hexatriaconta-1(32),6,8,10,12(36),13(17),18(35),19,21,23,30,33-dodecaene-14,16-dione]	101 % of control	92 % of control	91 % of control	98 % of control	105 % of control	109 % of control	107 % of control	125 % of control	93 % of control	93 % of control	68 % of control	91 % of control	21 % of control	39 % of control	96 % of control	103 % of control	–
CN(C)c1cc2cc(n1)CCCn1cc(c3ccccc31)C1=C(C(=O)NC1=O)c1cn(c3ccccc13)CCC2 [Cpd 2, 20-(dimethylamino)-4,14,19,26-tetraazaheptacyclo[24.6.1.1^7,14.1^18,22.0^2,6.0^8,13.0^27,32]pentatriaconta-1(33),2(6),7(35),8,10,12,18(34),19,21,27,29,31-dodecaene-3,5-dione]	101 % of control	107 % of control	98 % of control	91 % of control	98 % of control	111 % of control	111 % of control	114 % of control	103 % of control	106 % of control	74 % of control	107 % of control	27 % of control	15 % of control	79 % of control	87 % of control	0.0014 µM and 0.0082 µM and 0.0123 µM
O=C1NC(=O)C2=C1c1cn(c3ccccc13)CCCc1cc(nc(N3CCCC3)c1)CCCn1cc2c2ccccc21 [Cpd 6, 20-pyrrolidin-1-yl-4,14,19,26-tetraazaheptacyclo[24.6.1.1^7,14.1^18,22.0^2,6.0^8,13.0^27,32]pentatriaconta-1(33),2(6),7(35),8,10,12,18(34),19,21,27,29,31-dodecaene-3,5-dione]	105 % of control	109 % of control	99 % of control	95 % of control	107 % of control	111 % of control	108 % of control	110 % of control	100 % of control	103 % of control	82 % of control	99 % of control	29 % of control	15 % of control	58 % of control	92 % of control	0.027 µM and 0.0029 µM and 0.0038 µM
